The source of these data is PMC8869984, “Multifunctional Silver(I) Complexes with Metronidazole Drug Reveal Antimicrobial Properties and Antitumor Activity against Human Hepatoma and Colorectal Adenocarcinoma Cells” (Cancers, 2022).

The IC50 is the midpoint of a concentration-inhibition curve.

Data set [1] has as its system Balb/c 3T3 cells. Nature of the data set: cytotoxicity, MTT, NRU, TPC and LDH assays taken together, 72 h. In kind it is cell-based, murine. To be noted: non-cancer Balb/c 3T3 cells, range over MTT, TPC, LDH. As to the method:
The human hepatoma (HepG2) and colorectal adenocarcinoma (Caco-2) cells were purchased from the American Type Culture Collection: ATCC HB-8065 and ATCC HTB-37, respectively. These cells were cultured in Minimum Essential Medium Eagle (MEME) (ATCC). The murine fibroblasts cell line (Balb/c 3T3 clone A31) (gift from the Department of Swine Diseases of the National Veterinary Research Institute in Pulawy) was cultured in Dulbecco’s Modified Eagle Medium (DMEM) (ATCC). The media were supplemented with 10% BCS (Balb/c 3T3), 10% FBS (HepG2), 20% FBS (Caco-2), 1% L-glutamine, 1% antibiotic solution. […] Cytotoxicity was assessed after 72 h of exposure of the cells to compounds. […]
The metabolic activity of living cells was assessed by the measurement of the activity of dehydrogenases. […] The plate was shaken for 15 min at room temperature and transferred to a microplate reader Synergy HTX multi-mode reader (BioTek® Instruments Inc., Winooski, VT, USA) to measure the absorbance at 570 nm, using a blank as a reference. Cytotoxicity was expressed as a percentage of the negative control.
This method is based on staining living cells with neutral red, which readily diffuses through the plasma membrane and accumulates in lysosomes. […] Cytotoxicity was expressed as a percentage of the negative control. […]

Data set [2] has as its system Caco-2 cells. Nature of the data set: LDH leakage assay (membrane integrity), 72 h exposure. It is filed as cell-based, human. To be noted: Caco-2, LDH. (In general: Release of lactate dehydrogenase indicates damage to the cell membrane.)
The subject of data set [3] is Balb/c 3T3 cells. Kind of data set: NRU assay (lysosomal activity), 72 h exposure. In kind it is cell-based, murine. The protocol: (§1) The human hepatoma (HepG2) and colorectal adenocarcinoma (Caco-2) cells were purchased from the American Type Culture Collection: ATCC HB-8065 and ATCC HTB-37, respectively. These cells were cultured in Minimum Essential Medium Eagle (MEME) (ATCC). The murine fibroblasts cell line (Balb/c 3T3 clone A31) (gift from the Department of Swine Diseases of the National Veterinary Research Institute in Pulawy) was cultured in Dulbecco’s Modified Eagle Medium (DMEM) (ATCC). The media were supplemented with 10% BCS (Balb/c 3T3), 10% FBS (HepG2), 20% FBS (Caco-2), 1% L-glutamine, 1% antibiotic solution. The cells were maintained in 75 cm^2 cell culture flasks (NUNC) in a humidified incubator at 37 °C in an atmosphere of 5% CO2. The medium was refreshed every two or three days, and the cells were trypsinized by 0.25% trypsin–0.02% EDTA after reaching 70–80% confluence. Single cell suspensions were prepared and adjusted to a density of 2 × 10^5 cell/mL^−1 (HepG2), 1 × 10^5 cell/mL^−1 (Caco-2) and 5 × 10^4 cell/mL^−1 (Balb/c 3T3). The cell suspension was transferred to 96-well plates (100 µL/well) and incubated for 24 h before the exposure to the studied compounds. Stock solutions of ligands and metal complexes were prepared in sterile water and diluted with culture medium to obtain a concentration range from 0.1 to 10 µM. The final concentration of sterile water was 0.1% in the medium. […] As a negative control, cultured cells were grown in the absence of studied compounds. Each concentration was tested in six replicates in three independent experiments. Cytotoxicity was assessed after 72 h of exposure of the cells to compounds. The medium was not changed during the incubation time.
This method is based on staining living cells with neutral red, which readily diffuses through the plasma membrane and accumulates in lysosomes. […] After 10 min of shaking, the absorbance of the dissolved NR was measured using a Synergy HTX multi-mode reader (BioTek® Instruments Inc., Winooski, VT, USA) at 540 nm using a blank as a reference. Cytotoxicity was expressed as a percentage of the negative control. […]

The test system of data set [4] is Caco-2 cells. Nature of the data set: NRU assay (lysosomal activity), 72 h exposure. In kind it is cell-based, human. To be noted: Caco-2, NRU.
Data set [5] concerns Balb/c 3T3 cells. Nature of the data set: MTT assay (mitochondrial activity), 72 h exposure. It is filed as cell-based, murine. The protocol: as §1
The metabolic activity of living cells was assessed by the measurement of the activity of dehydrogenases. […] The plate was shaken for 15 min at room temperature and transferred to a microplate reader Synergy HTX multi-mode reader (BioTek® Instruments Inc., Winooski, VT, USA) to measure the absorbance at 570 nm, using a blank as a reference. Cytotoxicity was expressed as a percentage of the negative control. […]
For orientation: Formazan colour is commonly taken as a measure of viable cells.

For data set [6], the system named is reference aerobic and anaerobic microorganisms (ATCC). Nature of the data set: micro-dilution broth method, whole panel of reference strains. In kind it is cell-based. To be noted: against the majority of tested bacterial strains.
The next data set is described as follows: solubility in water. The settings on record: qualitative statement. It is filed as physicochemical.
In the next data set the test system is S. aureus biofilm. Kind of data set: qualitative antibiofilm activity, confocal laser scanning microscope (CLSM). The settings on record: 500 mg/L, 24 h exposure.

In the case of `O=S(=O)([O-])[O-].[Ag+].[Ag+]` [Ag2SO4, silver sulfate], the IC50 with Balb/c 3T3 cells [1] was in the range of 1.92 to 2.57 µM.
For `Cc1ncc([N+](=O)[O-])n1CCO` [MTZ, 2-Methyl-5-nitroimidazole-1-ethanol], the IC50 is more than 10 µM in the data set with Caco-2 cells [2] (Homo sapiens, mean ± SD, n = 3); more than 10 µM with Balb/c 3T3 cells [3] (Mus musculus, BALB/c3T3, Balb/c 3T3, NRU, mean ± SD, n = 3); more than 10 µM with Caco-2 cells [4] (Homo sapiens, mean ± SD, n = 3); more than 10 µM in the data set with Balb/c 3T3 cells [5] (Mus musculus, BALB/c3T3, Balb/c 3T3, MTT, mean ± SD, n = 3).
`Cc1ncc([N+](=O)[O-])n1CCO.Cc1ncc([N+](=O)[O-])n1CCO.Cc1ncc([N+](=O)[O-])n1CCO.Cc1ncc([N+](=O)[O-])n1CCO.O=S(=O)([O-])[O-].[Ag+].[Ag+]` [[Ag(MTZ)2]2SO4]: the “lowest concentration with significant (p ≤ 0.05) disintegration of cellular membranes” value in the data set on Caco-2 cells [2] (Figure 6) turned out to be 0.5 µM. Also, in data set [6], the “minimal inhibition concentration (MIC), range” value lay in the range of 0.24 to 250 µg/mL. Moreover, in “solubility in water”, the solubility in water result was “more soluble in water in comparison to Ag2SO4”. In addition, the “lowest concentration with significant (p ≤ 0.05) effect” value turned out to be 5.0 µM in the data set on Balb/c 3T3 cells [3] (Balb/c 3T3, NRU, Figure 6) and 5.0 µM with Balb/c 3T3 cells [5] (Balb/c 3T3, MTT, Figure 6). Moreover, the “effect on biofilm (CLSM, qualitative)” value in the data set with S. aureus biofilm is “significantly reduced biofilm density”. Further, the “lowest concentration with inhibition of lysosomal activity” value in the data set with Caco-2 cells [4] (Figure 6) was 1.0 µM.
